Source: US20250296959A1, “B7-H3 TARGETING PEPTIDES AND CONSTRUCTS THEREOF” (Mariana Oncology Inc., priority 2024, published 2025)
Starred links: 1 amine or outer side, 2 acyl side, 3 side chain; linkers in the order of their positions; H or OH if unused. Positions of bridges follow the written chain, without caps; N, C: chain ends. Non-standard residues stand in square brackets, D forms with d. Residues, ends and D or L forms follow the SMILES beside them. Groups on a side chain read outwards from the residue. *: point of attachment. Ala(piperidin-4-yl) = O=C([C@H](CC1CCN([*:3])CC1)N[*:1])[*:2]; DOTA = O=C(O)CN1CCN(CC(=O)O)CCN(CC(=O)*)CCN(CC(=O)O)CC1; Phe(4-COOH) = N[C@@H](Cc1ccc(C(=O)O)cc1)C(=O)O; Trp(5-F) = N[C@@H](Cc1c[nH]c2ccc(F)cc12)C(=O)O; Ala(4-THP) = N[C@@H](CC1CCOCC1)C(=O)O; Val(3-OH) = CC(C)(O)[C@H](N)C(=O)O; X14 = CC(C)CC[C@H](NC(N)=O)C(=O)*; aIle = CC[C@@H](C)[C@H](N)C(=O)O; Aad = N[C@@H](CCCC(=O)O)C(=O)O; Cit = NC(=O)NCCC[C@H](N)C(=O)O; PEG4 = NCCOCCOCCOCCOCCC(=O)O; Tle = CC(C)(C)[C@H](N)C(=O)O; hLeu = CC(C)CC[C@H](N)C(=O)O; Nle = CCCC[C@H](N)C(=O)O

Target: T1, human 4lg B7-H3 (Homo sapiens, UniProt Q5ZPR3)
T1 sequence (Q5ZPR3 29-534): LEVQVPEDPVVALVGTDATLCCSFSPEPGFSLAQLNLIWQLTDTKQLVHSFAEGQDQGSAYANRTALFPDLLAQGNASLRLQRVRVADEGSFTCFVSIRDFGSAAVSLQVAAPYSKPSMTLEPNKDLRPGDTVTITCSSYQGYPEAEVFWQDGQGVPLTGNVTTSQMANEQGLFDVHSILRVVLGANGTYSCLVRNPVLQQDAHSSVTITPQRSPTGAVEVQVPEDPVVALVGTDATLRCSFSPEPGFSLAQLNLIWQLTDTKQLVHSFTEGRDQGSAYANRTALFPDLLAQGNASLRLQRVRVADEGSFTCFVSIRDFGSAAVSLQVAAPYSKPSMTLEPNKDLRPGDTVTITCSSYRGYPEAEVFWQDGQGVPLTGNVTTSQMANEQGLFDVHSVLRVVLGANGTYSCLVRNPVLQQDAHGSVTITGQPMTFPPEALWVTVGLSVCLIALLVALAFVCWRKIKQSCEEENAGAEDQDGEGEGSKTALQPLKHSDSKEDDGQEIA
Test: Affinity determination by surface plasmon resonance (SPR) to 4Ig B7-H3
Conditions: SPR KD—25° C., 4Ig B7-H3; 25° C. flow cell temperature

Row | Compound | Kd [nM]
1 | CCCC[C@H](NC(C)=O)C(=O)N[C@@H](Cc1ccc(O)cc1)C(=O)N[C@H]1CSSC[C@@H](C(=O)N[C@@H](Cc2c[nH]c3ccccc23)C(=O)N[C@@H](Cc2ccccc2)C(=O)N[C@H](C(=O)N[C@H](CCCCNC(=O)CN2CCN(CC(=O)O)CCN(CC(=O)O)CCN(CC(=O)O)CC2)C(N)=O)[C@@H](C)O)NC(=O)[C@H](Cc2ccc(O)cc2)NC(=O)[C@H](C(C)(C)C)NC(=O)[C@H](CC(=O)O)NC(=O)[C@H](Cc2ccc(O)cc2)NC(=O)[C@H](CCCCN)NC(=O)CNC(=O)[C@H](C(C)C)NC1=O [compound 62, Ac-Nle-Y-C-V-G-K-Y-D-Tbg-Y-C-W-F-Thr-dLys(DOTA)-CONH2] (Ac-[Nle]YCVGKYD[Tle]YCWFT[dK](DOTA)-NH2; disulfide 3-11) | 100 to 300
2 | CCCC[C@H](NC(C)=O)C(=O)N[C@@H](Cc1ccc(O)cc1)C(=O)N[C@H]1CSSC[C@@H](C(=O)N[C@@H](Cc2c[nH]c3ccccc23)C(=O)N[C@@H](Cc2ccccc2)C(=O)N[C@H](C(=O)N[C@H](CCCCNC(=O)CN2CCN(CC(=O)O)CCN(CC(=O)O)CCN(CC(=O)O)CC2)C(=O)O)[C@@H](C)O)NC(=O)[C@H](Cc2ccc(O)cc2)NC(=O)[C@H](C(C)C)NC(=O)[C@H](CCCC(=O)O)NC(=O)[C@H](Cc2ccc(O)cc2)NC(=O)[C@H](CCCCN)NC(=O)CNC(=O)[C@H](C(C)C)NC1=O [compound 102, Ac-Nle-Y-C-V-G-K-Y-HomoGlu-V-Y-C-W-F-Thr-dLys(DOTA)-COOH] (Ac-[Nle]YCVGKY[Aad]VYCWFT[dK](DOTA)-OH; disulfide 3-11) | 100 to 300

The remaining lines, values ahead:

Row | Kd [nM] | Compound
3 | 10 to 100 | CC(=O)N[C@@H](CC(C)C)C(=O)N[C@@H](Cc1ccc(O)cc1)C(=O)N[C@H]1CSSC[C@@H](C(=O)N[C@@H](Cc2c[nH]c3ccccc23)C(=O)N[C@@H](Cc2ccccc2)C(=O)N[C@H](C(=O)N[C@H](CCCCNC(=O)CN2CCN(CC(=O)O)CCN(CC(=O)O)CCN(CC(=O)O)CC2)C(N)=O)[C@@H](C)O)NC(=O)[C@H](Cc2ccc(O)cc2)NC(=O)[C@H](C(C)C)NC(=O)[C@H](CC(=O)O)NC(=O)[C@H](Cc2ccc(O)cc2)NC(=O)[C@H](CCCCN)NC(=O)CNC(=O)[C@H](C(C)C)NC1=O [compound 56, Ac-Leu-Y-C-V-G-K-Y-D-V-Y-C-W-F-Thr-dLys(DOTA)-CONH2] (Ac-LYCVGKYDVYCWFT[dK](DOTA)-NH2; disulfide 3-11)
4 | < 1 | CC(=O)N[C@@H](CCC(C)C)C(=O)N[C@@H](Cc1ccc(O)cc1)C(=O)N[C@H]1CSSC[C@@H](C(=O)N[C@@H](Cc2c[nH]c3ccccc23)C(=O)N[C@@H](Cc2ccccc2)C(=O)N[C@H](C(=O)N[C@H](CCCCNC(=O)CN2CCN(CC(=O)O)CCN(CC(=O)O)CCN(CC(=O)O)CC2)C(N)=O)[C@@H](C)O)NC(=O)[C@H](Cc2ccc(O)cc2)NC(=O)[C@H](C(C)C)NC(=O)[C@H](CC(=O)O)NC(=O)[C@H](Cc2ccc(O)cc2)NC(=O)[C@H](CC2CCNCC2)NC(=O)CNC(=O)[C@H](C(C)C)NC1=O [compound 154, Ac-hLeu-Y-C-V-G-PipAla-Y-D-V-Y-C-W-F-Thr-dLys(DOTA)-CONH2] (Ac-[hLeu]YCVG[Ala(piperidin-4-yl)]YDVYCWFT[dK](DOTA)-NH2; disulfide 3-11)
5 | 10 to 100 | CC(=O)N[C@@H](CCC(C)C)C(=O)N[C@@H](Cc1ccc(O)cc1)C(=O)N[C@H]1CSSC[C@@H](C(=O)N[C@@H](Cc2c[nH]c3ccccc23)C(=O)N[C@@H](Cc2ccccc2)C(=O)N[C@H](C(=O)N[C@H](CCCCNC(=O)CN2CCN(CC(=O)O)CCN(CC(=O)O)CCN(CC(=O)O)CC2)C(N)=O)[C@@H](C)O)NC(=O)[C@H](Cc2ccc(O)cc2)NC(=O)[C@H](C(C)C)NC(=O)[C@H](CC(=O)O)NC(=O)[C@H](Cc2ccc(O)cc2)NC(=O)[C@H](CCCCN)NC(=O)CNC(=O)[C@H](C(C)(C)O)NC1=O [compound 122, Ac-hLeu-Y-C-hydroVal-G-K-Y-D-V-Y-C-W-F-Thr-dLys(DOTA)-CONH2] (Ac-[hLeu]YC[Val(3-OH)]GKYDVYCWFT[dK](DOTA)-NH2; disulfide 3-11)
6 | < 1 | CC[C@@H](C)[C@@H]1NC(=O)[C@H](CC(=O)O)NC(=O)[C@H](Cc2ccc(O)cc2)NC(=O)[C@H](CCCCN)NC(=O)CNC(=O)[C@H](C(C)C)NC(=O)[C@@H](NC(=O)[C@H](Cc2ccc(O)cc2)NC(=O)[C@H](CCC(C)C)NC(C)=O)CSSC[C@@H](C(=O)N[C@@H](Cc2c[nH]c3ccccc23)C(=O)N[C@@H](Cc2ccccc2)C(=O)N[C@H](C(=O)N[C@H](CCCCNC(=O)CN2CCN(CC(=O)O)CCN(CC(=O)O)CCN(CC(=O)O)CC2)C(N)=O)[C@@H](C)O)NC(=O)[C@H](Cc2ccc(O)cc2)NC1=O [compound 126, Ac-hLeu-Y-C-V-G-K-Y-D-allolle-Y-C-W-F-Thr-dLys(DOTA)-CONH2] (Ac-[hLeu]YCVGKYD[aIle]YCWFT[dK](DOTA)-NH2; disulfide 3-11)

Same assay, conditions: SPR KD—37° C., 4Ig B7-H3; 37° C. flow cell temperature

Row | Kd [nM] | Compound
7 | < 1 | CC(=O)N[C@@H](CCC(C)C)C(=O)N[C@@H](Cc1ccc(O)cc1)C(=O)N[C@H]1CSSC[C@@H](C(=O)N[C@@H](Cc2c[nH]c3ccc(F)cc23)C(=O)N[C@@H](Cc2ccccc2)C(=O)N2CCC[C@H]2C(=O)N[C@H](CCCCNC(=O)CN2CCN(CC(=O)O)CCN(CC(=O)O)CCN(CC(=O)O)CC2)C(=O)O)NC(=O)[C@H](Cc2ccc(O)cc2)NC(=O)[C@H](C(C)C)NC(=O)[C@H](CC(=O)O)NC(=O)[C@H](Cc2ccc(C(=O)O)cc2)NC(=O)[C@H](CC2CCNCC2)NC(=O)CNC(=O)[C@H](C(C)C)NC1=O [compound 313, Ac-hLeu-Y-C-V-G-PipAla-4COOHPhe-D-V-Y-C-5FW-F-Pro-dLys(DOTA)-COOH] (Ac-[hLeu]YCVG[Ala(piperidin-4-yl)][Phe(4-COOH)]DVYC[Trp(5-F)]FP[dK](DOTA)-OH; disulfide 3-11)
8 | 1 to 10 | CC(=O)N[C@@H](CCC(C)C)C(=O)N[C@@H](Cc1ccc(O)cc1)C(=O)N[C@H]1CSSC[C@@H](C(=O)N[C@@H](Cc2c[nH]c3ccc(F)cc23)C(=O)N[C@@H](Cc2ccccc2)C(=O)N[C@H](C(N)=O)C(C)(C)O)NC(=O)[C@H](Cc2ccc(O)cc2)NC(=O)[C@H](C(C)C)NC(=O)[C@H](CC(=O)O)NC(=O)[C@H](CC2CCOCC2)NC(=O)[C@H](CC2CCN(C(=O)CCOCCOCCOCCOCCNC(=O)CN3CCN(CC(=O)O)CCN(CC(=O)O)CCN(CC(=O)O)CC3)CC2)NC(=O)CNC(=O)[C@H](C(C)(C)C)NC1=O [compound 382, Ac-hLeu-Y-C-Tbg-G-Pip(PEG4-DOTA)Ala-ThpA-D-V-Y-C-5FW-F-hydroxyVal-CONH2] (Ac-[hLeu]YC[Tle]G[Ala(piperidin-4-yl)]([PEG4-DOTA])[Ala(4-THP)]DVYC[Trp(5-F)]F[Val(3-OH)]-NH2; disulfide 3-11)
9 | < 1 | CC(C)CC[C@H](NC(N)=O)C(=O)N[C@@H](Cc1ccc(O)cc1)C(=O)N[C@H]1CSSC[C@@H](C(=O)N[C@@H](Cc2c[nH]c3ccc(F)cc23)C(=O)N[C@@H](Cc2ccccc2)C(=O)N[C@H](C(=O)N[C@H](CCCCNC(=O)CN2CCN(CC(=O)O)CCN(CC(=O)O)CCN(CC(=O)O)CC2)C(=O)O)C(C)(C)O)NC(=O)[C@H](Cc2ccc(O)cc2)NC(=O)[C@H](C(C)C)NC(=O)[C@H](CC(=O)O)NC(=O)[C@H](CC2CCOCC2)NC(=O)[C@H](CC2CCNCC2)NC(=O)CNC(=O)[C@H](C(C)(C)C)NC1=O [Cpd #468, urea-hLeu-Y-C-Tbg-G-PipAla-ThpA-D-V-Y-C-5FW-F-hydroxyVal-dLys(DOTA)-COOH] (X14-YC[Tle]G[Ala(piperidin-4-yl)][Ala(4-THP)]DVYC[Trp(5-F)]F[Val(3-OH)][dK](DOTA)-OH; disulfide 2-10)

Same assay, conditions: read-out: SPR KD—37° C.; 4Ig B7-H3; 37° C. flow cell temperature

Row | Kd [nM] | Compound
10 | < 1 | CC(=O)N[C@@H](CCC(C)C)C(=O)N[C@@H](Cc1ccc(O)cc1)C(=O)N[C@H]1CSSC[C@@H](C(=O)N[C@@H](Cc2c[nH]c3ccc(F)cc23)C(=O)N[C@@H](Cc2ccccc2)C(=O)N[C@H](C(=O)N[C@H](C)C(=O)O)C(C)(C)O)NC(=O)[C@H](Cc2ccc(O)cc2)NC(=O)[C@H](C(C)C)NC(=O)[C@H](CC(=O)O)NC(=O)[C@H](CC2CCN(C(=O)CCOCCOCCOCCOCCNC(=O)CN3CCN(CC(=O)O)CCN(CC(=O)O)CCN(CC(=O)O)CC3)CC2)NC(=O)[C@H](CCCNC(N)=O)NC(=O)CNC(=O)[C@H](C(C)(C)C)NC1=O [compound 489, Ac-hLeu-Y-C-Tbg-G-Cit-Pip(PEG4-DOTA)Ala-D-V-Y-C-5FW-F-hydroxyVal-dAla-COOH] (Ac-[hLeu]YC[Tle]G[Cit][Ala(piperidin-4-yl)]([PEG4-DOTA])DVYC[Trp(5-F)]F[Val(3-OH)][dA]-OH; disulfide 3-11)
